Data reported in article PMC9112895, “Selective Inhibition of Plasmodium falciparum ATPase 6 by Artemisinins and Identification of New Classes of Inhibitors after Expression in Yeast” (Antimicrobial Agents and Chemotherapy, 2022).
Marks after values point to notes of the source that are not given here.

Assays:
PfATP6 [1] = molecular target: T1, PfATP6 (Plasmodium falciparum, UniProt Q08853); test: Yeast whole-cell growth inhibition (functional rescue) assay, K667[PfATP6]; type: cell-based; parameters: pUGpd containing the yeast-optimized coding region of PfATP6 from Plasmodium falciparum; expressed in transfected cells; host or cells: Saccharomyces cerevisiae K667 and K667Δpdr5::HIS
T1 sequence (Q08853 whole entry): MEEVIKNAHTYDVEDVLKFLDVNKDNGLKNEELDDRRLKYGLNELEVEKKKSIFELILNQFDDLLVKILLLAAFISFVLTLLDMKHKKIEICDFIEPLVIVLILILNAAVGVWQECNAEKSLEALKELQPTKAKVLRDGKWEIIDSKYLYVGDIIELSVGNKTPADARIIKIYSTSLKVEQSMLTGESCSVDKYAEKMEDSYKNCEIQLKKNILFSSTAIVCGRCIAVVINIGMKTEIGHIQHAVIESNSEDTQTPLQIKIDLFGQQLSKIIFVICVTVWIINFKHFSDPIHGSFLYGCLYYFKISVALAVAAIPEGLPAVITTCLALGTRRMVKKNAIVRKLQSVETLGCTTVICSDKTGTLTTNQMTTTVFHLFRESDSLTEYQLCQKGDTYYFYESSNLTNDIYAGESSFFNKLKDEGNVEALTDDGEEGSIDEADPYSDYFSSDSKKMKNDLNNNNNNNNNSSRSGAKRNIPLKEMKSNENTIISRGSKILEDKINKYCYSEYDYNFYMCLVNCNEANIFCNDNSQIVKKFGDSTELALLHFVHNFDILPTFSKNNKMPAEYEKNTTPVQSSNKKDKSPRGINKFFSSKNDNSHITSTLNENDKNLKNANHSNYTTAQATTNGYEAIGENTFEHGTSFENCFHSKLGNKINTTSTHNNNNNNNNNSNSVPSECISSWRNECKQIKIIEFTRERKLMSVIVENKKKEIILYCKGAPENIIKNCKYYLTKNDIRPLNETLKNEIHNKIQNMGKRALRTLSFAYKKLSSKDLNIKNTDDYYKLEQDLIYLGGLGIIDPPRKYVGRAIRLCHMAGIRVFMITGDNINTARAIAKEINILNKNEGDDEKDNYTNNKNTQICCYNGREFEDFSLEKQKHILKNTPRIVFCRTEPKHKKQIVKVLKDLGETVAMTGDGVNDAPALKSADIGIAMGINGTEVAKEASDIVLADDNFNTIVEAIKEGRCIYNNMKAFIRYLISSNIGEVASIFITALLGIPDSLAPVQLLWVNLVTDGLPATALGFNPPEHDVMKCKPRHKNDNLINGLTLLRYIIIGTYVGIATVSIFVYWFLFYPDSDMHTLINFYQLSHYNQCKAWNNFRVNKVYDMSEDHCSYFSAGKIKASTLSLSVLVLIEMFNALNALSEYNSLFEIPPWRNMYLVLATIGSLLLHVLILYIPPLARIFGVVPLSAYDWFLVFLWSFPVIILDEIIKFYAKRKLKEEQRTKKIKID
Protocol: (§1) The screening assay used here was developed from the protocol used by Pulcini et al. ([13]). A single colony of the yeast strain to be screened was picked and grown in 5 mL of selective medium until stationary phase was reached. The culture was diluted 100-fold in ampicillin-supplemented yeast extract-peptone-dextrose (YPD) medium to an OD at 620 nm (OD620) equivalent to that of lag phase. YPD medium was supplemented with an appropriate concentration of calcium, depending on the transformed strain. […] The optimal calcium concentration was periodically monitored and, if necessary, adjusted using a calcium concentration range of 10 to 30 mM. A final volume of 200 μL of the yeast culture was added to each well of a 96-well plate, with 5 technical replicates included per inhibitor. All inhibitors were dissolved in dimethyl sulfoxide (DMSO) unless otherwise stated. […] The 96-well plates were incubated at 30°C for 42 h. The yeast growth was estimated from the absorbance at 620 nm in a Tecan plate reader. Growth was normalized with the no-drug control to present data as percent growth. The data collected were analyzed using GraphPad Prism v9.0 (GraphPad software, San Diego, CA, U.S.A).

PfATP6 [2] = molecular target: T1, PfATP6; test: cell-based; type: cell-based; parameters: pUGpd containing the yeast-optimized coding region of PfATP6 from Plasmodium falciparum; expressed in transfected cells; host or cells: Saccharomyces cerevisiae K667 and K667Δpdr5::HIS; conditions: for inhibition of PfATP6 in compound screen: growth inhibition, K667Δpdr5[PfATP6]; for Fold difference: IC50 K667[PfATP6] versus K667Δpdr5[PfATP6]
Protocol: as §1

PfATP6 [3] = molecular target: T1, PfATP6; test: In vitro activity assay, PfATP6 (membrane-bound); type: biochemical; parameters: pUGpd containing the yeast-optimized coding region of PfATP6 from Plasmodium falciparum; expressed in transfected cells; conditions: 1 μM free calcium
Protocol: Activity assays were performed as described by Longland et al. ([55]) and LeBel et al. ([56]), except that the reaction mixtures were incubated at 30°C instead of 37°C. […] Then, 5.8 mM ATP was added and incubated for an additional 15 min at 30°C. The reaction was stopped with 0.5 mL 6.5% trichloroacetic acid (TCA) on ice, and the mixture was centrifuged at 4°C for 10 min at 16,000 × g; 0.5 mL of the supernatant was added to 1.5 mL of copper acetate buffer (0.25% copper sulfate pentahydrate, 4.6% sodium acetate trihydrate, dissolved in 2 M acetic acid [pH 4.0]) and mixed by vortex-mixing before the addition of 0.25 mL of 5% ammonium molybdate, followed by 0.25 mL METOL buffer (2% p-methyl-aminophenol sulfate, 5% sodium sulfite). Samples were incubated for 10 min, and the absorbance was measured at 870 nm in a spectrophotometer. The Pi standard was 0.4387 g/100 mL KH2PO4.

PfATP6 [4] = molecular target: T1, PfATP6; test: DHA-biotin labeling / pulldown, Western blot and mass spectrometry; type: binding; parameters: pUGpd containing the yeast-optimized coding region of PfATP6 from Plasmodium falciparum; expressed in transfected cells; host or cells: Saccharomyces cerevisiae K667 and K667Δpdr5::HIS
Protocol: Both whole yeast and microsomes were prepared for mass spectrometric analysis by addition of 500 nM biotin-tagged DHA probe to 200 μL (∼0.6 mg protein) of yeast microsome preparation or 10 μM probe to 50 to 100 mL yeast culture at an OD620 of 1.0 to 1.5 (∼35 to 70 mg total protein) and incubation for 4 h at 30°C. For competition studies, 25× artesunate was added and incubated for 30 min before addition of the probe and incubation for 4 h at 30°C. Samples were then acetone precipitated by adding 4 volumes of −20°C acetone/water (4:1) to the yeast pellet or microsomal pellet and incubating the mixture for 2 h to overnight at −20°C. The samples were then pelleted at 13,000 to 16,000 × g for 10 min at 0°C to 4°C and washed twice with −20°C acetone/water solution. After a final centrifugation, pellets were dried in a freeze-drier for 1 h. Subsequent pulldowns and liquid chromatography-tandem mass spectrometry were performed as described by Wang et al. ([18]).
A 0.3-mg aliquot of PfATP6-enriched membrane vesicles, as well as an aliquot of SERCA1a and vector-only membrane vesicles, were thawed on ice. One-half of each aliquot (0.15 mg) was preincubated with 12.5 μM artesunate at 30°C for 30 min. Then, all samples had 500 nM DHA-biotin probe added (NewChem Technologies) and were incubated at 30°C for 4 h. […] Blots were analyzed using the Odyssey scanner system. […]

Plasmodium falciparum = test: In vitro parasite assay ([3H]hypoxanthine uptake); type: cell-based; conditions: parasites in vitro, read-out: antiparasitic potency IC50
Protocol: Inhibitor IC50s were calculated in parasite assays following the protocol described by Desjardins et al. ([52]). Briefly, cultures were synchronized to ring stage by D-sorbitol lysis, using a 5% D-sorbitol solution. The parasites were diluted to a final parasitemia of 1%. Hypoxanthine-free medium was added to give a hematocrit level of 4%. A 2-fold dilution series of the inhibitors in hypoxanthine-free medium was prepared, and 100 μL of each inhibitor concentration was seeded in a 96-well plate, with 5 technical replicates of each included. Two no-inhibitor controls, i.e., hypoxanthine-free medium only, were included. Plates were incubated at 37°C in 5% CO2 for 24 h. After 24 h, [^3H]hypoxanthine was added to each well to a final concentration of 0.5 μCi/well, and the plates were incubated for a further 24 h. Plates were then freeze-thawed to lyse the cells, and the [^3H]hypoxanthine uptake was measured in a Beckman scintillation counter.

[5] = tested on: cytosolic Ca2+ concentration in parasites; test: Parasite calcium homeostasis (YC-Nano biosensor, flow cytometry); type: cell-based, Plasmodium falciparum; conditions: 25 μM, YC-Nano-expressing parasites
Protocol: Three biological replicates were carried out, after an initial blinded experiment.

Structure (SMILES)	IC50 (PfATP6 [1]) [µM]	IC50 (PfATP6 [2]) [µM]	Fold difference (PfATP6 [2])	other results
C[C@@H]1CC[C@H]2[C@@H](C)C(=O)O[C@@H]3O[C@@]4(C)CC[C@@H]1[C@]32OO4 [Artemisinin]	10.6	1.8		
Oc1ccc(O)cc1 [benzohydroquinone]				inhibition of PfATP6 in compound screen (PfATP6 [2]): limited success
C[C@@H]1CC[C@H]2[C@@H](C)C(=O)O[C@@H]3O[C@@]4(C)CC[C@@H]1[C@]32O4 [deoxyartemisinin]				in vitro activity of PfATP6 versus no drug control (PfATP6 [3]): No significant
Cc1cc(O)c2c(=O)c3c(O)cc(O)c4c5c(O)cc(O)c6c(=O)c7c(O)cc(C)c8c1c2c(c34)c(c78)c65 [hypericin]				inhibition of PfATP6 in compound screen (PfATP6 [2]): limited success
CC1CCC2C(C)C(OC(=O)CCOCCOCCOCCOCCNC(=O)CCCCC3SCC4NC(=O)NC43)OC3OC4(C)CCC1C32OO4 (stereo not drawn) [biotin-derivatized DHA]				alkylation/labeling of PfATP6 (PfATP6 [4]; membrane extracts and whole yeast, K667[PfATP6], mass spectrometry): alkylated; IC50 (Plasmodium falciparum): 0.005 µM
C[C@H]1O[C@@H](O[C@H]2CC[C@@]3(C)[C@@H](CC[C@]4(C)[C@@H]3C=C[C@]35OC[C@@]6(CCC(C)(C)C[C@H]63)[C@H](O)C[C@]54C)[C@]2(C)CO)[C@H](O)[C@@H](O[C@@H]2O[C@H](CO)[C@@H](O)[C@H](O)[C@H]2O)[C@H]1O [saikosaponin, Saikosaponin D]				concentration at which PfATP6 was inhibited (PfATP6 [2]; inhibited only at high concentrations): > 100 µM
C[C@H]1[C@H](OC(=O)CCC(=O)O)O[C@@H]2O[C@@]3(C)CC[C@H]4[C@H](C)CC[C@@H]1[C@@]24OO3 [Artesunate]	14.8	3.7	4^d	competition with tagged DHA for PfATP6 (PfATP6 [4]; preincubation with excess artesunate): competed with the tagged DHA
CO[C@H]1O[C@@H]2O[C@@]3(C)CC[C@H]4[C@H](C)CC[C@@H]([C@H]1C)[C@@]24OO3 [Artemether]	15.7	3.4	5^e	approximate IC10 (PfATP6 [2]; fitness cost assays, drug pressure): ~1 µM; IC80 (PfATP6 [2]; read-out: approximate yeast IC80): ~1 µM
C[C@H]1[C@H](N2CCS(=O)(=O)CC2)O[C@@H]2O[C@@]3(C)CC[C@H]4[C@H](C)CC[C@@H]1[C@@]24OO3 [Artemisone]	3.6	0.9	4^c	change in cytosolic Ca2+ concentration [5]: significantly increased; change in cytosolic Ca2+ concentration ([5]; listed as artemisone): sustained elevation
C[C@H]1[C@@H](O)O[C@@H]2O[C@@]3(C)CC[C@H]4[C@H](C)CC[C@@H]1[C@@]24OO3 [DHA, dihydroartemisinin]	23.8	2.1	11^c	in vitro activity of PfATP6 versus no drug control (PfATP6 [3]): No significant; IC50 (Plasmodium falciparum): 0.0025 µM
